Test results from patent US20070015663A1, “Growth regulator and process for growth regulation of plant” (SUPER BLAST SYSTEMS CO., LTD., priority 2001, published 2007).
Read-outs that look alike come from different tables or passages of the source.

How the values were obtained:
rice = settings: 23° C. 4 days dark + 3 days light
Experimental: (§1) Absorbent cotton was spread on a 4.5 cm dish, and thereto was added 10 ml of a test solution. Seeds (10 seeds) were added thereto, grown at 23° C. for 4 days in the dark, and thereafter cultured at 23° C. for 3 days in the light (about 3000 lux).
FIG. 1 is a drawing illustrating the state of seeds within each of the dishes. FIG. 2 is a drawing comparing the length of each shoot and the length of each root. […] For reference, the length of the label is 5 mm.

tomato = assay: Germination and seedling growth of tomato on absorbent cotton with test solution; format: in vivo, tomato (Lycopersicon esculentum)
Experimental: as §1
FIG. 3 is a drawing illustrating the state of germination within each of the dishes similarly to FIG. 1. FIG. 4 is a drawing comparing the length of each embryonic axis (shoot) and that of each root similarly to FIG. 2.
FIG. 11 is a drawing illustrating the state of seeds within each of the dishes similarly to FIG. 1, and each control is shown. […] In addition, the lengths of each shoot and root are presented.
(§2) Indole-3-acetate (IAA) was used as the auxin.

lettuce [1] = test system: lettuce
Experimental: as §1

radish = test system: radish
Experimental: as §1

perennial ryegrass = test system: perennial ryegrass
Experimental: as §1
FIG. 7 is a drawing illustrating the state of seeds within each of the dishes similarly to FIG. 1. FIG. 8 is a drawing comparing the length of each shoot and that of each root similarly to FIG. 2.

Veronica persica Poir = assay: Germination and seedling growth of Veronica persica Poir with test solution; format: in vivo
Experimental: as §1
FIG. 10 is a drawing illustrating the state of seeds within each of the dishes similarly to FIG. 1, and each control is shown. […] In addition, the lengths of each embryonic axis shoots and root are indicated.
as §2

lettuce [2] = test system: lettuce; remark: listed apart in the source
Experimental: For control 1, absorbent cotton was spread on a 4.5 cm dish, and thereto was added 10 ml of water. Seeds (10 seeds) were added thereto, grown at 23° C. for 4 days in the dark, and thereafter cultured at 23° C. for 3 days in the light (about 3000 lux).

[3] = volcanic ash+0.1% NaHCO3 (100 g and 0.1% NaHCO3 solution 28 g)
[4] = volcanic ash+1% NaHCO3 (100 g and 1% NaHCO3 solution 28 g)
[5] = volcanic ash+10% NaHCO3 (100 g and saturated sodium bicarbonate solution 28 g)

## O=C([O-])O.[Na+] [NaHCO3, sodium bicarbonate]
rice; NaHCO3 0.003%
  length of the root: 32.0±9.3 mm
  length of the shoot: 11.0±1.0 mm
rice; NaHCO3 0.01%
  length of the root: 18.0±9.7 mm
  length of the shoot: 10.0±0 mm
rice; NaHCO3 0.03%
  length of the root: 23.7±0.9 mm
  length of the shoot: 15.0±1.0 mm
rice; NaHCO3 0.1%
  length of the root: 20.7±2.3 mm
  length of the shoot: 13.3±0.9 mm
rice; NaHCO3 0.3%
  length of the root: 2.3±0.3 mm
  length of the shoot: 7.3±1.5 mm
rice; NaHCO3 1%
  length of the root: 0±0 mm
  length of the shoot: 3.3±0.3 mm
tomato; in vivo
  germination: germination does not occur
  length of the shoot: 5 mm
Lettuce [1]; NaHCO3 0.003%
  length of the root: 18.7±4.7 mm
  length of the shoot: 14.0±0.6 mm
Lettuce [1]; NaHCO3 0.01%
  length of the root: 21.0±0.6 mm
  length of the shoot: 24.3±0.9 mm
Lettuce [1]; NaHCO3 0.03%
  length of the root: 14.3±1.9 mm
  length of the shoot: 24.3±0.3 mm
Lettuce [1]; NaHCO3 0.1%
  length of the root: 11.0±0.6 mm
  length of the shoot: 15.7±0.3 mm
Lettuce [1]; NaHCO3 0.3%
  length of the root: 3.7±0.3 mm
  length of the shoot: 6.7±0.3 mm
Lettuce [1]; NaHCO3 1%
  length of the root: 0±0 mm
  length of the shoot: 0±0 mm
radish; NaHCO3 0.003%
  length of the embryonic axis (shoot): 66.3±4.1 mm
  length of the root: 37.0±1.5 mm
radish; NaHCO3 0.01%
  length of the embryonic axis (shoot): 74.0±1.5 mm
  length of the root: 71.3±1.9 mm
radish; NaHCO3 0.03%
  length of the embryonic axis (shoot): 60.0±3.1 mm
  length of the root: 80.7±5.9 mm
radish; NaHCO3 0.1%
  length of the embryonic axis (shoot): 66.7±3.4 mm
  length of the root: 22.0±1.5 mm
radish; NaHCO3 0.3%
  length of the embryonic axis (shoot): 19.3±0.7 mm
  length of the root: 7.3±1.3 mm
radish; NaHCO3 1%
  length of the embryonic axis (shoot): 0±0 mm
  length of the root: 0±0 mm
Perennial ryegrass; NaHCO3 0.003%
  length of the root: 25.3±0.9 mm
  length of the shoot: 24.7±0.3 mm
Perennial ryegrass; NaHCO3 0.01%
  length of the root: 27.3±1.5 mm
  length of the shoot: 42.0±0.6 mm
Perennial ryegrass; NaHCO3 0.03%
  length of the root: 26.0±0.6 mm
  length of the shoot: 44.3±1.5 mm
Perennial ryegrass; NaHCO3 0.1%
  length of the root: 28.0±1.5 mm
  length of the shoot: 55.7±0.7 mm
Perennial ryegrass; NaHCO3 0.3%
  length of the root: 4.7±0.3 mm
  length of the shoot: 19.0±0.6 mm
Perennial ryegrass; NaHCO3 1%
  length of the root: 0±0 mm
  length of the shoot: 0±0 mm
Veronica persica Poir; in vivo
  length of the root: 9 mm
  length of the shoot: 8 mm
Lettuce [2]; [3]
  development of the root: 21.0±0.8 mm
  development of the shoot: 33.4±1.1 mm
Lettuce [2]; [4]
  length of the root: 5.4±1.1 mm
  length of the shoot: 26.0±1.5 mm
Lettuce [2]; [5]
  development of the root: 0 mm
  development of the shoot: 0 mm

## O=C(O)Cc1c[nH]c2ccccc12 [IAA, indole-3-acetate]
tomato; Example 8, IAA 10^−4 M alone
  length of the root: 30 mm
  length of the shoot: 20 mm
tomato; Example 8, IAA 10^−5 M alone
  length of the root: 41 mm
  length of the shoot: 23 mm
Veronica persica Poir; Example 9, IAA 10^−4 M alone
  length of the root: 11 mm
  length of the shoot: 8 mm
Veronica persica Poir; Example 9, IAA 10^−5 M alone
  length of the root: 22 mm
  length of the shoot: 13 mm
